Data taken from ChEMBL document CHEMBL1144317, “Antimitotic activity and reversal of breast cancer resistance protein-mediated drug resistance by stilbenoids from Bletilla striata” (Bioorg Med Chem Lett, 2005).

Target: Beta tubulin
Test: Inhibition of tubulin polymerization interacting at the colchicine binding site.
Type: functional

| SMILES | IC50 |
| --- | --- |
| COc1cc(O)c(-c2c(O)cc(OC)c3c2ccc2cc(O)ccc23)c2ccc3cc(O)ccc3c12 [CIRRHOPETALANTHIN] | 30 µM |
| COc1cc(O)cc(CCc2cccc(O)c2)c1Cc1ccc(O)cc1 | 10 µM |
| COc1cc(O)c2c(c1Cc1ccc(O)cc1)CCc1cc(O)ccc1-2 | 300 µM |
| COc1cc(O)c(-c2c(O)cc(OC)c3c2ccc2cc(O)ccc23)c2c1-c1ccc(O)cc1CC2 [CIRRHOPETALANTHRIN] | 30 µM |
| COc1cc(O)c(-c2c(O)cc3c(c2OC)-c2ccc(O)cc2CC3)c2c1-c1ccc(O)cc1CC2 | 30 µM |
| COc1c(Cc2ccc(O)cc2)c(O)c(Cc2ccc(O)cc2)c2c1-c1ccc(O)cc1CC2 | 30 µM |
| COc1c(O)ccc2c1ccc1c(Cc3ccc(O)cc3)c(O)cc(OC)c12 | 30 µM |
| COc1cc(O)c(Cc2ccc(O)cc2)c(CCc2cccc(O)c2)c1Cc1ccc(O)cc1 | 10 µM |
| CC[C@]1(O)C[C@@H]2CN(CCc3c([nH]c4ccccc34)[C@@](C(=O)OC)(c3cc4c(cc3OC)N(C)[C@H]3[C@@](O)(C(=O)OC)[C@H](OC(C)=O)[C@]5(CC)C=CCN6CC[C@]43[C@@H]65)C2)C1 [VINBLASTINE] | 1 µM |
